Entries after “also recorded” stand apart in the source; their conditions may differ. Where no end group is shown, it is not given here.
Tests used:
adult male Wistar rats = assay: Morris Water Maze spatial learning; format: in vivo, rat; details: 2.5 mg/kg s.c. as a single dose 5, 3 and 1 day prior to training; versus vehicle
Description: FIG. 6. Effects of FGLs on spatial learning in the Morris Water Maze. Rats received FGLs or vehicle subcutaneously as a single dose of 2.5 mg/kg 5, 3 and 1 day prior to first test (trials 1-4 in above graph). The second test (trials 5-8 in above graph) took place the day after the first test. The results were analysed using analysis of variance (ANOVA) and Student's t-test. Data are mean escape latency(s) (±SEM) to find the platform over the 2 training days (t1-t4). *p<0.05, when compared with the Vehicle/Control group at the same time point.
The aim of this study was to investigate whether the subcutaneous administration of FGLs modulates spatial learning in adult male Wistar rats, using the Morris Water Maze as test system.
In the MWM test, rats are evaluated in the task to learn and remember the location of an escape platform hidden just under the water surface. In this study the test set-up was optimised for measuring learning. Rats received FGLs 2.5 mg/kg or vehicle subcutaneously as a single dose 5, 3 and 1 day prior the start of the training in the MWM.

[1] = tested on: (25-35) β-amyloid peptide fragment induced cognitive deficits model in rats; assay: (25-35) β-amyloid induced cognitive deficits, intranasal administration, SRT; format: in vivo, rat; details: 1.28 mg/kg intranasally daily, 15 doses day 7 to 21; SRT 22 days after β-amyloid injection
Description: FIG. 9. Effects of intranasal administration of FGLs on the β-amyloid neurotoxicity induced deficit on performance in the Social Recognition Test. Rats received an intranasal administration of FGLs at the stated doses or vehicle daily at days 7 to 21 after i.c.v. administration of the (25-35) β-amyloid (A-β) fragment. 8-10 animals per group. Results are expressed as Means and SEM of Recognition Ratio and analyzed by one-sample t-test: **p<0.05.
In this study, the (25-35) β-amyloid peptide fragment induced cognitive deficits model in rats was used to investigate the dose-response (0.08, 0.32 or 1.28 mg/kg) effect of FGLs administered intranasally daily for 15 doses from day 7 to day 21 post β-amyloid peptide i.c.v. injection. The social memory performance was evaluated using the SRT, 22 days after the β-amyloid injection. A statistically significant impairment of short-term memory was observed as a consequence of the (25-35) β-amyloid neurotoxicity in the rats receiving the (25-35) β-amyloid fragment plus vehicle.

[2] = Visual appearance of peptide diluted in water; format: physicochemical; details: 100 mg/ml in water, room temperature
Description: FIG. 11. Visual appearance of FGLL and FGLs. 100 mg of FGLL and FGLs, respectively were diluted in 1 ml water at room temperature for visual inspection.
FGFL and FGFs were diluted in water at a concentration of 100 mg/ml for visual inspection (FIG. 11). […] In another experiment were 5 mg of FGLL and FGLs respectively diluted in 1 ml water or PBS at room temperature. Light microscopy pictures of the water and PBS solutions of FGLL and FGLs can be seen in FIG. 12. In FIG. 13. is a 90° light-scattering spectra of 100 mg/ml FGFL and FGLs in water showing the difference in intensity between the FGF L and the FGLs, solution.

[3] = tested on: scopolamine induced social amnesia model in adult rats; assay: Scopolamine induced social amnesia model (SRT); format: in vivo, rat; details: 8 mg/kg s.c. twice, 19 hours interval
Description: FIG. 7. Effects of subcutaneous administration of FGLL FGLs, and VEB1 (2 administrations with a 19 hours interval, at 8 mg/kg) on the scopolamine induced social amnesia as evaluated in the Social Recognition Test (SRT). The rats were tested with the initial trial of SRT performed 5 h after the last administration of peptide/vehicle and 30 minutes after scopolamine (0.01 mg/kg s.c.) administration. The juvenile rat was presented twice with an inter-trial interval of 15 minutes.
A—Recognition ratios (RR) of rats treated with scopolamine and vehicle (Veh) or scopolamine and one of the three peptides as detailed above. Results are shown as Mean and SEM of recognition ratio (RR). […] Comparisons of RR values to a hypothetical value 0.50 were carried out using one-sample t-test. In each experimental group data were obtained from 10 rats.
B—Cumulative investigation time (T1, in seconds) during the first trial of the SRT of rats treated with scopolamine and vehicle (Veh) or scopolamine and one of the three peptides as detailed above. Results are shown as Mean and SEM of T1. Comparison between groups were carried out by ANOVA followed by Dunnett Multiple Comparison Test. In each experimental group data were obtained from 10 rats.
FGLs was tested for efficacy in the scopolamine induced social amnesia model in adult rats (Van Kampen et al., 2004). […]

Substance: FGLs: two identical 11 amino acid peptides (VAENQQGKSKA), forming a dimer through a linker molecule (iminodiacetic acid); peptide amide (VAENQQGKSKA-NH2; not fully specified; also: dimer of two identical peptides through iminodiacetic acid linker, attachment site not given here)
- spatial learning in Morris Water Maze (escape latency) (adult male Wistar rats): learned significantly faster than vehicle treated ones
- deficit in social memory performance (SRT) compared with vehicle treated rats [1]: significant (p<0.01) amelioration of the deficit
- visual appearance of solution [2]: remained clear
- cumulative investigation time at the first encounter (T1) versus scopolamine and vehicle ([3]; scopolamine 0.01 mg/kg s.c.): significantly longer T1 than rats treated with vehicle; also recorded: significant difference in the cumulative investigation time at the first encounter
- recognition ratio (RR) versus theoretical value 0.5 in scopolamine treated rats ([3]; test 5 h after last dose, 30 minutes after scopolamine 0.01 mg/kg s.c.): Significant effects against scopolamine induced social amnesia; also recorded: RR significantly different from the theoretical value of 0.5

From patent US8470964B2, “Peptides derived from NCAM (FGLs)” (Enkam Pharmaceuticals A/S, priority 2007, dated 2013)
